Measurements reported in patent US4056626A, “Pharmaceutical composition containing benzofuran derivative” (Kakenyaku Kako Co., Ltd., priority 1971, dated 1977).
Read-outs that look alike come from different tables or passages of the source.

What was measured:
[1] = test system: isoproterenol antagonism concerning myocardial contractile force, heart rate and diastolic blood pressure; test: isoproterenol antagonism in anesthetized dogs; assay type: in vivo; conditions: for ED50: Canis lupus familiaris, iv; for Inhibition of decrease in diastolic blood pressure, relative activity / Inhibition of increase in heart rate, relative activity / Inhibition of increase in myocardial contractile force, relative activity: activity of Propranolol is 1
Experimental: Male and female dogs weighing 9 kg. to 20 kg. were employed. The dogs were anesthetized with barbital sodium (30 mg./kg.) given intraperitoneally. The compounds to be tested and isoproterenol were administered in femoral vein through a canula.
The maximum increase was adopted as the increase in myocardial contractile force. The increase after 1 minute from the administration of isoproterenol was adopted as the increase in heart rate. The maximum decrease was adopted as the decrease in diastolic blood pressure. Then, the compounds to be tested were administered in a dose of 0.01 to 100 μg./kg. After an interval of 2 minutes, isoproterenol was again administered in a dose of 0.3 μg./kg. After the second administration of isoproterenol, the maximum increase in myocardial contractile force, the increase after 1 minute from the administration of isoproterenol in heart rate and the maximum decrease in diastolic blood pressure were again determined.

[2] = test system: isoproterenol antagonism concerning myocardial contractile force and heart rate in isolated guinea-pig atria; test: isoproterenol antagonism in isolated guinea-pig atria; conditions: for Inhibition of increase in heart rate ED 50 / Inhibition of increase in myocardial contractile force ED 50: 37° C., isoproterenol 1 × 10^-8 g./ml., 50% inhibition; for Inhibition of increase in heart rate, relative activity / Inhibition of increase in myocardial contractile force, relative activity: activity of Propranolol is 1
Experimental: Isolated guinea-pig atrium was mounted in a chamber containing Ringer-Lockesolution (37° C.), through which a mixed gas of 95% O2 and 5% CO2 was continuously bubbled. Isoproterenol was added to the solution at a concentration of 1 × 10^-^8 g./ml.

[3] = in vivo; conditions: mouse, iv
[4] = anesthetized dogs, femoral vein, isoproterenol 0.3 μg./kg., 50% inhibition, read-out: Inhibition of decrease in diastolic blood pressure ED50
[5] = anesthetized dogs, femoral vein, isoproterenol 0.3 μg./kg., 50% inhibition, read-out: Inhibition of increase in heart rate ED50
[6] = anesthetized dogs, femoral vein, isoproterenol 0.3 μg./kg., 50% inhibition, read-out: Inhibition of increase in myocardial contractile force ED50

CC(=NC(C)C)c1cc2cccc(OCC(O)CNC(C)C)c2o1 (stereo not drawn) [Compound No. 1, 2-(1-isopropyliminoethyl)-7-(2-hydroxy-3-isopropylaminopropoxy)benzofuran]
ED50 [1, 4]: 0.3 µg/kg
ED50 [1, 5]: 0.42 µg/kg
ED50 [1, 6]: 0.6 µg/kg
Inhibition of decrease in diastolic blood pressure, relative activity ([1]; anesthetized dogs): 3.1
Inhibition of increase in heart rate, relative activity ([1]; anesthetized dogs): 25.0
Inhibition of increase in myocardial contractile force, relative activity ([1]; anesthetized dogs): 15.9
Inhibition of increase in heart rate ED 50 [2]: 0.014 µg/mL
Inhibition of increase in myocardial contractile force ED 50 [2]: 0.0017 µg/mL
Inhibition of increase in heart rate, relative activity [2]: 7.1
Inhibition of increase in myocardial contractile force, relative activity [2]: 5.9
LD50 at 24 h [3]: 65000 to 70000 µg/kg

CC(=O)c1cc2c(OCC(O)CNC(C)(C)C)cccc2o1 (stereo not drawn) [Compound No. 2, 2-acetyl-4-(2-hydroxy-3-tert.-butylaminopropoxy)benzofuran]
ED50 [1, 4]: 0.92 µg/kg
ED50 [1, 5]: 35.2 µg/kg
ED50 [1, 6]: 8.62 µg/kg
Inhibition of decrease in diastolic blood pressure, relative activity ([1]; anesthetized dogs): 1.0
Inhibition of increase in heart rate, relative activity ([1]; anesthetized dogs): 0.3
Inhibition of increase in myocardial contractile force, relative activity ([1]; anesthetized dogs): 1.1
Inhibition of increase in heart rate ED 50 [2]: 0.045 µg/mL
Inhibition of increase in myocardial contractile force ED 50 [2]: 0.017 µg/mL
Inhibition of increase in heart rate, relative activity [2]: 2.2
Inhibition of increase in myocardial contractile force, relative activity [2]: 0.6
LD50 at 24 h [3]: 35000 to 40000 µg/kg

CC(=O)c1cc2cccc(OCC(O)CNC(C)C)c2o1 (stereo not drawn) [Compound No. 3, 2-acetyl-7-(2-hydroxy-3-isopropylaminopropoxy)benzofuran]
ED50 [1, 4]: 0.18 µg/kg
ED50 [1, 5]: 0.52 µg/kg
ED50 [1, 6]: 3.4 µg/kg
Inhibition of decrease in diastolic blood pressure, relative activity ([1]; anesthetized dogs): 5.3
Inhibition of increase in heart rate, relative activity ([1]; anesthetized dogs): 21.0
Inhibition of increase in myocardial contractile force, relative activity ([1]; anesthetized dogs): 2.8
Inhibition of increase in heart rate ED 50 [2]: 0.04 µg/mL
Inhibition of increase in myocardial contractile force ED 50 [2]: 0.005 µg/mL
Inhibition of increase in heart rate, relative activity [2]: 2.5
Inhibition of increase in myocardial contractile force, relative activity [2]: 2.0
LD50 at 24 h [3]: 100000 to 105000 µg/kg

CC(=O)c1cc2cccc(OCC(O)CNC(C)(C)C)c2o1 (stereo not drawn) [Compound No. 4, 2-acetyl-7-(2-hydroxy-3-tert.-butylaminopropoxy)benzofuran]
ED50 [1, 4]: 0.72 µg/kg
ED50 [1, 5]: 3.5 µg/kg
ED50 [1, 6]: 6.33 µg/kg
Inhibition of decrease in diastolic blood pressure, relative activity ([1]; anesthetized dogs): 1.3
Inhibition of increase in heart rate, relative activity ([1]; anesthetized dogs): 3.0
Inhibition of increase in myocardial contractile force, relative activity ([1]; anesthetized dogs): 1.5
Inhibition of increase in heart rate ED 50 [2]: 0.033 µg/mL
Inhibition of increase in myocardial contractile force ED 50 [2]: 0.004 µg/mL
Inhibition of increase in heart rate, relative activity [2]: 3.0
Inhibition of increase in myocardial contractile force, relative activity [2]: 2.5
LD50 at 24 h [3]: 45000 to 55000 µg/kg

CC(=NC(C)C)c1cc2c(OCC(O)CNC(C)C)cccc2o1 (stereo not drawn) [Compound No. 6, 2-(1-isopropyliminoethyl)-4-(2-hydroxy-3-isopropylaminopropoxy)benzofuran]
ED50 [1, 5]: 0.21 µg/kg
ED50 [1, 6]: 5.93 µg/kg
Inhibition of decrease in diastolic blood pressure, relative activity ([1]; anesthetized dogs): 30.2
Inhibition of increase in heart rate, relative activity ([1]; anesthetized dogs): 50.0
Inhibition of increase in myocardial contractile force, relative activity ([1]; anesthetized dogs): 1.6
Inhibition of increase in heart rate ED 50 [2]: 0.014 µg/mL
Inhibition of increase in myocardial contractile force ED 50 [2]: 0.008 µg/mL
Inhibition of increase in heart rate, relative activity [2]: 7.0
Inhibition of increase in myocardial contractile force, relative activity [2]: 1.3
LD50 at 24 h [3]: 45000 to 50000 µg/kg

CCC(C)NCC(O)COc1cccc2cc(C(C)=O)oc12 (stereo not drawn) [Compound No. 7, 2-acetyl-7-(2-hydroxy-3-sec.-butylaminopropoxy)benzofuran]
ED50 [1, 4]: 2.35 µg/kg
ED50 [1, 5]: 7.07 µg/kg
ED50 [1, 6]: 5.59 µg/kg
Inhibition of decrease in diastolic blood pressure, relative activity ([1]; anesthetized dogs): 0.4
Inhibition of increase in heart rate, relative activity ([1]; anesthetized dogs): 1.5
Inhibition of increase in myocardial contractile force, relative activity ([1]; anesthetized dogs): 1.7
Inhibition of increase in heart rate ED 50 [2]: 0.067 µg/mL
Inhibition of increase in myocardial contractile force ED 50 [2]: 0.0048 µg/mL
Inhibition of increase in heart rate, relative activity [2]: 1.5
Inhibition of increase in myocardial contractile force, relative activity [2]: 2.0
LD50 at 24 h [3]: 75000 to 80000 µg/kg

CCc1cc2c(C(C)=O)ccc(OCC(O)CNC(C)C)c2o1 (stereo not drawn) [Compound No. 8, 2-ethyl-4-acetyl-7-(2-hydroxy-3-isopropylaminopropoxy)benzofuran]
ED50 [1, 4]: 1.9 µg/kg
ED50 [1, 5]: 0.3 µg/kg
ED50 [1, 6]: 6.4 µg/kg
Inhibition of decrease in diastolic blood pressure, relative activity ([1]; anesthetized dogs): 0.5
Inhibition of increase in heart rate, relative activity ([1]; anesthetized dogs): 35.0
Inhibition of increase in myocardial contractile force, relative activity ([1]; anesthetized dogs): 1.5
Inhibition of increase in heart rate ED 50 [2]: 0.053 µg/mL
Inhibition of increase in myocardial contractile force ED 50 [2]: 0.0091 µg/mL
Inhibition of increase in heart rate, relative activity [2]: 1.9
Inhibition of increase in myocardial contractile force, relative activity [2]: 1.1
LD50 at 24 h [3]: 120000 to 125000 µg/kg

CCC(C)N=C(C)c1cc2cccc(OCC(O)CNC(C)CC)c2o1 (stereo not drawn) [Compound No. 9, 2-(1-sec.-butyliminoethyl)-7-(2-hydroxy-3-sec.-butylaminopropoxy)benzofuran]
ED50 [1, 4]: 0.16 µg/kg
ED50 [1, 5]: 0.53 µg/kg
ED50 [1, 6]: 0.73 µg/kg
Inhibition of decrease in diastolic blood pressure, relative activity ([1]; anesthetized dogs): 6.0
Inhibition of increase in heart rate, relative activity ([1]; anesthetized dogs): 20.0
Inhibition of increase in myocardial contractile force, relative activity ([1]; anesthetized dogs): 13.1
Inhibition of increase in heart rate ED 50 [2]: 0.06 µg/mL
Inhibition of increase in myocardial contractile force ED 50 [2]: 0.004 µg/mL
Inhibition of increase in heart rate, relative activity [2]: 1.6
Inhibition of increase in myocardial contractile force, relative activity [2]: 2.5
LD50 at 24 h [3]: 75000 to 80000 µg/kg

CCC(C)N=C(C)c1cc2c(OCC(O)CNC(C)CC)cccc2o1 (stereo not drawn) [Compound No. 10, 2-(1-sec.-butyliminoethyl)-4-(2-hydroxy-3-sec.-butylaminopropoxy)benzofuran]
ED50 [1, 5]: 0.21 µg/kg
ED50 [1, 6]: 3.95 µg/kg
Inhibition of decrease in diastolic blood pressure, relative activity ([1]; anesthetized dogs): 23.5
Inhibition of increase in heart rate, relative activity ([1]; anesthetized dogs): 50.0
Inhibition of increase in myocardial contractile force, relative activity ([1]; anesthetized dogs): 2.4
Inhibition of increase in heart rate ED 50 [2]: 0.04 µg/mL
Inhibition of increase in myocardial contractile force ED 50 [2]: 0.0059 µg/mL
Inhibition of increase in heart rate, relative activity [2]: 2.5
Inhibition of increase in myocardial contractile force, relative activity [2]: 1.7
LD50 at 24 h [3]: 60000 to 65000 µg/kg

CC(C)NCC(O)COc1cccc2ccccc12 (stereo not drawn) [Propranolol, reference compound]
ED50 ([1]; read-out: Inhibition of decrease in diastolic blood pressure ED50): 0.94 µg/kg
ED50 ([1]; read-out: Inhibition of increase in heart rate ED50): 10.6 µg/kg
ED50 ([1]; read-out: Inhibition of increase in myocardial contractile force ED50): 9.5 µg/kg

CCOC(=O)c1cc2cccc(OCC(O)CNC(C)C)c2o1 (stereo not drawn) [compound 5, 2-carbethoxy-7-(2-hydroxy-3-isopropylaminopropoxy)benzofuran]
ED50 [1, 4]: 1.57 µg/kg
ED50 [1, 5]: 0.21 µg/kg
ED50 [1, 6]: 9.5 µg/kg
Inhibition of decrease in diastolic blood pressure, relative activity ([1]; anesthetized dogs): 0.6
Inhibition of increase in heart rate, relative activity ([1]; anesthetized dogs): 50.0
Inhibition of increase in myocardial contractile force, relative activity ([1]; anesthetized dogs): 1.0
Inhibition of increase in heart rate ED 50 [2]: 0.029 µg/mL
Inhibition of increase in myocardial contractile force ED 50 [2]: 0.0055 µg/mL
Inhibition of increase in heart rate, relative activity [2]: 3.5
Inhibition of increase in myocardial contractile force, relative activity [2]: 1.8
LD50 at 24 h [3]: 50000 to 55000 µg/kg
